Results from paper PMC5618418, “Pharmacokinetics of Jaspine B and Enhancement of Intestinal Absorption of Jaspine B in the Presence of Bile Acid in Rats” (Marine Drugs, 2017).

Assays:
in vitro = in vitro ADME, rat
Protocol: For the measurement of the effect of TC on the tight junction of biological membranes, the permeability of 50 μM Lucifer yellow, a marker of paracellular permeation, was measured in the presence of TC (0, 0.1, 1, 10, 100 mM). Prior to the experiment, ileal segments from SD rats (about 20 cm) were placed in the chambers and were submerged in fresh, prewarmed (37 °C) HBSS for 15 min for acclimatization. The chambers were continuously bubbled with carbogen gas (5% CO2/ 95% O2) during the experiment. The experiments began by replacing the HBSS with HBSS containing 50 μM Lucifer yellow and various concentrations of TC on the apical side (A) and adding fresh HBSS to the basal side (B). Aliquots (400 μL) of media were withdrawn from the receiver compartment (B) after 0, 20, 40, 60, and 80 min, and the volume of liquid in the receiver compartment was replenished with fresh, prewarmed HBSS after each sampling. Aliquots (200 μL) of all samples were used for the determination of Lucifer yellow concentration. The fluorescence of Lucifer yellow in the samples was measured using a fluorescence spectrophotometer (Infinite 200 PRO, Tecan, Switzerland) with excitation at 425 nm and emission at 535 nm.
A to B and B to A permeability of Jaspine B was measured in the presence of TC and rat bile. One mL of HBSS containing 50 μM Jaspine B and 10 mM TC or 20% bile was added to the donor side and 1 mL of preheated fresh HBSS was added to the receiver side. Aliquots (400 μL) of media were withdrawn at 0, 20, 40, 60, and 80 min from the receiver compartment as described above. Aliquots (50 μL) of all samples were stored at −80 °C until analysis.
Aliquots (50 μL) of all samples were added to 250 μL of acetonitrile containing 0.5 ng/mL of berberine. After vortexing for 10 min and centrifugation at 13,200 rpm for 5 min, 2 μL of the supernatant was injected directly into the LC-MS/MS system.
The apparent permeability (Papp) of the drug was calculated by dividing the initial drug transport rate (dQ/dt, pmol/min) by the initial drug concentration in the donor compartment of the insert (Co) multiplied by the surface area of the insert (A, cm^2): (3) Papp=dQ/dt×1/ACo

[1] = Metabolic stability in rat liver microsomes; assay type: in vitro ADME; conditions: 1 μM, rat liver microsomes, NADPH-generating system, 60 min, 37 °C
Protocol: Jaspine B (1 μM) was reconstituted in 100 mM potassium phosphate buffer (pH 7.4) containing 0.25 mg of RLMs and was pre-incubated for 5 min at 37 °C. The reaction was initiated by adding an NADPH-generating system (1.3 mM β-NADP, 3.3 mM glucose-6-phosphate, 3.3 mM MgCl2, and 1.0 unit/mL glucose-6-phosphate dehydrogenase) and then incubated (final volume 100 μL) for 0, 15, 30, and 60 min at 37 °C in a shaking water bath. The reaction was stopped by placing the incubation tubes on ice and adding 200 μL of ice-cold acetonitrile containing 0.5 ng/mL of berberine. After vortexing for 10 min and centrifugation at 13,200 rpm for 5 min, 2 μL of the supernatant was injected directly into the LC-MS/MS system.

Row | Compound | increase of permeability caused by tight junction opening (in vitro) | permeability change (in vitro) | percentage remaining [1]
1 | Lucifer yellow [reference compound] | ~ 2.8 fold | sharp increase | –
2 | CN(C)C(=N)N=C(N)N [metformin, reference compound] | – | – | 63.4%
